Data taken from US20260285853A1, “COMPOUNDS AND METHODS FOR MODULATING SPLICING” (REMIX THERAPEUTICS INC., priority 2023, published 2026).
Where two headings read alike, the source gives them in different places.

What was measured:
Type in all cases: cell-based
[1] = test system: HTT mRNA; test: Splicing RT-qPCR assay (THP), Table 2A
[2] = test system: SH-SY5Y (human neuroblastoma) cells; test: Cell viability, Cell Titer Glo 2.0 assay; settings: read-out: Viability SHSY5Y.3 GI50
Outline: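 SH-SY5Y neuroblastoma cells are exposed to test compounds for 72 hours at 37 °C and 5% CO2, with final DMSO held at 0.1%. Cell viability is then measured with the CellTiter-Glo 2.0 assay.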

[3] = test system: MYB mRNA; test: Splicing RT-qPCR assay (THP), Table 2A
[4] = test system: HTT mRNA; test: Gene panel canonical junction qPCR assay, decrease in CJ mRNA, Table 3
Outline: (§1)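 A673 cells were plated, left to adhere for 24 h, then dosed; K562 cells were plated in 96- or 384-well format and dosed directly. Both were incubated 24 h at 37 °C with an 11-point 3-fold series (top 10 uM final). Canonical junction mRNA was then read by cDNA synthesis and qPCR.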

[5] = test system: MYB mRNA; test: as above
Outline: as §1

[6] = Table 2A, THP, HTT alternative junction (AJ) mRNA, read-out: HTT AJ (AC50, increase in alternative junction mRNA)
[7] = Table 2A, THP, HTT canonical junction (CJ) mRNA, read-out: HTT CJ (IC50, decrease in canonical junction mRNA)
[8] = Table 2A, THP, MYB alternative junction (AJ) mRNA, read-out: MYB AJ (AC50, increase in alternative junction mRNA)
[9] = Table 2A, THP, MYB canonical junction (CJ) mRNA, read-out: MYB CJ (IC50, decrease in canonical junction mRNA)
[10] = decrease in CJ mRNA levels, canonical junction qPCR, gene panel
[11] = Table 2A (THP), AJ mRNA increase, read-out: HTT AJ (increase in alternative junction mRNA, AC50)
[12] = Table 2A (THP), CJ mRNA decrease, read-out: HTT CJ (decrease in canonical junction mRNA, IC50)
[13] = Table 2A (THP), AJ mRNA increase, read-out: MYB AJ (increase in alternative junction mRNA, AC50)
[14] = Table 2A (THP), CJ mRNA decrease, read-out: MYB CJ (decrease in canonical junction mRNA, IC50)
[15] = decrease in canonical junction (CJ) mRNA, gene panel qPCR, Table 3

IC50 [1, 7] [µM]	GI50 [2] [µM]	IC50 [3, 9] [µM]	IC50 [4, 10] [µM]	IC50 [5, 10] [µM]	IC50 [1, 12] [µM]	IC50 [3, 14] [µM]	IC50 [4, 15] [µM]	IC50 [5, 15] [µM]	SMILES	AC50 [1, 6] [µM]	AC50 [3, 8] [µM]	AC50 [1, 11] [µM]	AC50 [3, 13] [µM]
> 10	1 to 10	1 to 10	> 10	1 to 10	–	–	–	–	COc1nc2c(C(=O)Nc3cn4cc(C)nc(C)c4n3)ccc(N3C[C@H](C)N[C@@H](C)C3)c2s1 [Compound 711, N-(6,8-dimethylimidazo[1,2-a]pyrazin-2-yl)-7-[(3S,5S)-3,5-dimethylpiperazin-1-yl]-2-methoxy-1,3-benzothiazole-4-carboxamide]	> 10	1 to 10	–	–
–	0.1 to 1	–	–	–	> 10	1 to 10	> 10	1 to 10	Cc1cn2cc(NC(=O)c3ccc(N4CCC(N)CC4)c4cn(C)nc34)c(F)c2c(C)n1 [Compound 580, 4-(4-amino-1-piperidyl)-N-(8-fluoro-1,3-dimethyl-pyrrolo[1,2-a]-pyrazin-7-yl)-2-methyl-indazole-7-carboxamide]	–	–	> 10	1 to 10
–	1 to 10	–	–	–	> 10	0.1 to 1	> 10	0.1 to 1	CCNC1CCN(c2cc(F)c(C(=O)Nc3cn4cc(C)nc(C#N)c4n3)c3nn(C)cc23)CC1 [Compound 390, N-(8-cyano-6-methyl-imidazo[1,2-a]pyrazin-2-yl)-4-[4-(ethylamino)-1-piperidyl]-6-fluoro-2-methyl-indazole-7-carboxamide]	–	–	> 10	< 0.1
–	> 10	–	–	–	> 10	> 10	> 10	> 10	CCNCC1CN(c2ccc(C(=O)Nc3cn4cc(C)nc(C)c4n3)c3nn(C)cc23)C1 [Compound 494, N-(6,8-dimethylimidazo[1,2-a]-pyrazin-2-yl)-4-[3-(ethylaminomethyl)azetidin-1-yl]-2-methyl-indazole-7-carboxamide]	–	–	> 10	> 10
> 10	1 to 10	1 to 10	> 10	1 to 10	–	–	–	–	COc1cc2c(N3CCC(NC4CC4)CC3)ccc(C(=O)Nc3cn4cc(C)nc(CNS(C)(=O)=O)c4n3)n2n1 [Compound 806]	> 10	1 to 10	–	–
–	1 to 10	–	–	–	> 10	> 10	> 10	> 10	Cn1cc2c(N3CCC(NC4CC4)CC3)cc(F)c(C(=O)Nc3ccc4c(c3)COB4O)c2n1 [Compound 481, 4-(4-(cyclopropyl-amino)piperidin-1-yl)-6-fluoro-N-(1-hydroxy-1,3-dihydrobenzo[c][1,2]-oxaborol-5-y1)-2-methyl-2H-indazole-7-carboxamide 2,2,2-trifluoroacetate]	–	–	> 10	1 to 10
–	< 0.1	–	–	–	0.1 to 1	< 0.1	0.1 to 1	< 0.1	COc1c(NC(=O)c2c(F)cc(N3CCC(NC45CC(C4)C5)CC3)c3cn(C)nc23)cn2cc(C)nc2c1F [Compound 389, 4-[4-(1-bicyclo[1.1.1]pentanylamino)-1-piperidyl]-6-fluoro-N-(8-fluoro-7-methoxy-2-methylimidazo-[1,2-a]pyridin-6-yl)-2-methyl-indazole-7-carboxamide]	–	–	0.1 to 1	< 0.1
> 10	> 10	1 to 10	> 10	1 to 10	–	–	–	–	Cn1cc2cc(NC(=O)c3ccc(N4CCC(NC5CC5)CC4)c4cn(C)nc34)cc(CNS(C)(=O)=O)c2n1 [Compound 735, 4-(4-(cyclopropylamino)piperidin-1-yl)-2-methyl-N-(2-methyl-7-(methylsulfonamidomethyl)-2H-indazol-5-yl)-2H-indazole-7-carboxamide 2,2,2-trifluoroacetate]	> 10	1 to 10	–	–
–	> 10	–	–	–	1 to 10	0.1 to 1	1 to 10	0.1 to 1	COc1cc2nn(C)cc2cc1NC(=O)c1ccc(N2CC3CNCC3C2)c2cn(C)nc12 (stereo not drawn) [Compound 514]	–	–	1 to 10	0.1 to 1
